In patent US20030180228A1, “Aerosol container for formulations of salmeterol xinafoate” (priority 2000, published 2003):

Key:
[1] = Water content of salmeterol xinafoate HFA 134a canisters on storage, ex-valve Karl-Fischer; assay type: physicochemical
Protocol: The water content of the formulation may be determined by conventional Karl Fischer methodology. Typically this involves measuring the total water content of the formulation ex-valve using Couliometric titration.
(§1) In the experiments below canisters were stored in an inverted orientation. Valves all had 63 μl metering volume. Water content was measured ex-valve using Karl-Fischer methodology.
(§2) Aluminium canisters fitted with Valois D60 valve and containing 12 g HFA 134a and 6.53 mg salmeterol xinafoate were stored under various conditions of temperature and humidity and the moisture content measured and FPM measured (Andersen Cascade Impactor), with results as follows:
(§3) Aluminium canisters fitted with Valois DF60 valve and containing 12g HFA 134a and 6.53 mg salmeterol xinafoate were stored under various conditions of temperature and humidity and the moisture content measured and FPM measured (Andersen Cascade Impactor), with results as follows:
(§4) Aluminium canisters fitted with Bespak valve and containing […] and 6.53 mg salmeterol xinafoate were stored under various conditions of temperature and humidity and the moisture content measured and FPM measured (Andersen Cascade Impactor), with results as follows:
(§5) Aluminium canisters fitted with Valois DF60 valve and containing 12g HFA134a and 6.53 mg salmeterol xinafoate were stored under various conditions of temperature and humidity and the moisture content measured and FPM measured (Andersen Cascade Impactor), with results as follows: […]

[2] = Fine particle mass (FPM) by Andersen Cascade Impactor on storage, section A canisters; assay type: physicochemical
Protocol: The FPM of an actuation from an MDI can be calculated based on, for example, the sum of the amount of drug substance deposited on stages 3, 4 and 5 of an Andersen Cascade Impaction stack as determined by standard HPLC analysis.
as §1, §2, §3, §4, §5

[3] = (iii) Valois D60 valve, 30° C./60% RH, 3 months
[4] = (iii) Valois D60 valve, 40° C./75% RH, 1 month
[5] = (iii) Valois D60 valve, 40° C./75% RH, 3 months
[6] = (iii) Valois D60 valve, 40° C./75% RH, Initial
[7] = (iv) Valois DF60 valve, 25° C./60% RH, 1 month
[8] = (iv) Valois DF60 valve, 25° C./60% RH, 3 months
[9] = (iv) Valois DF60 valve, 25° C./60% RH, 6 month
[10] = (iv) Valois DF60 valve, 25° C./60% RH, Initial
[11] = (iv) Valois DF60 valve, 25° C./75% RH, 1 month
[12] = (iv) Valois DF60 valve, 25° C./75% RH, 3 months
[13] = (iv) Valois DF60 valve, 25° C./75% RH, 6 month
[14] = (iv) Valois DF60 valve, 25° C./75% RH, Initial
[15] = (iv) Valois DF60 valve, 40° C./75% RH, 1 month
[16] = (iv) Valois DF60 valve, 40° C./75% RH, 3 months
[17] = (iv) Valois DF60 valve, 40° C./75% RH, 6 month
[18] = (v) Bespak valve, 40° C./75% RH, 3 months
[19] = (vi) Valois DF60 valve, 40° C./75% RH, 3 months
[20] = (vii) Valois DF60 valve, 40° C./75% RH, 3 months

`OCc1cc(C(O)CNCCCCCCOCCCCc2ccccc2)ccc1O` (stereo not drawn) [salmeterol xinafoate, 4-Hydroxy-α^1-[[[6-(4-phenylbutoxy)hexyl]amino]methyl]-1,3-benzenedimethanol] showed a Water content ([1]; (iii) Valois D60 valve, 6.53 mg in 12 g HFA 134a, 30° C./60% RH, Initial) of 92 ppm, a Water content [1, 3] of 463 ppm and a Water content [1, 4] of 412 ppm. It also gave a Water content [1, 5] of 616 ppm, a Water content [1, 6] of 92 ppm and a Water content ([1]; (iv) Valois DF60 valve, 6.53 mg in 12 g HFA 134a, 40° C./75% RH, Initial) of 81 ppm. It also gave a Water content [1, 7] of 194 ppm, a Water content [1, 8] of 405 ppm and a Water content [1, 9] of 446 ppm. The Water content [1, 10] was 81 ppm, the Water content [1, 11] was 217 ppm and the Water content [1, 12] was 434 ppm. The Water content [1, 13] was 485 ppm, the Water content [1, 14] was 81 ppm and the Water content [1, 15] was 360 ppm. It also gave a Water content [1, 16] of 540 ppm, a Water content [1, 17] of 526 ppm and a Water content ([1]; (v) Bespak valve, 6.53 mg in HFA 134a, 40° C./75% RH, Initial) of 118 ppm. The Water content [1, 18] was 457 ppm, the Water content ([1]; (vi) Valois DF60 valve, 6.53 mg in 12 g HFA 134a, 40° C./75% RH, Initial) was 213 ppm and the Water content [1, 19] was 746 ppm. The Water content ([1]; (vii) Valois DF60 valve, 6.53 mg in 12 g HFA134a, 40° C./75% RH, Initial) was 181 ppm, the Water content [1, 20] was 668 ppm and the FPM [2, 3] was 7.9 µg. For the same molecule, the FPM ([2]; (iii) Valois D60 valve, 30° C./60% RH, Initial) was 10.3 µg, the FPM [2, 4] was 8.2 µg and the FPM [2, 5] was 6.2 µg. For the same molecule, the FPM [2, 6] was 10.3 µg, the FPM [2, 7] was 8.4 µg and the FPM [2, 8] was 8.3 µg. It also gave an FPM [2, 9] of 7.5 µg, an FPM [2, 10] of 9.4 µg and an FPM [2, 11] of 8.4 µg. For the same molecule, the FPM [2, 12] was 8.0 µg, the FPM [2, 13] was 7.2 µg and the FPM [2, 14] was 9.4 µg. It also gave an FPM [2, 15] of 7.8 µg, an FPM [2, 16] of 6.0 µg and an FPM [2, 17] of 6.2 µg. For the same molecule, the FPM ([2]; (iv) Valois DF60 valve, 40° C./75% RH, Initial) was 9.4 µg, the FPM [2, 18] was 7.0 µg and the FPM ([2]; (v) Bespak valve, 40° C./75% RH, Initial) was 11.3 µg. It also gave an FPM [2, 19] of 6.7 µg, an FPM ([2]; (vi) Valois DF60 valve, 40° C./75% RH, Initial) of 9.5 µg and an FPM [2, 20] of 7.4 µg. The FPM ([2]; (vii) Valois DF60 valve, 40° C./75% RH, Initial) was 9.6 µg.
